Source: patent publication US12329760B2, “Methods and compositions for targeting retinoic acid for solid tumor immunotherapy” (THE TRUSTEES OF THE UNIVERSITY OF PENNSYLVANIA, priority 2019, dated 2025)

Tested on: MCAS cells
Test: RALDH3 expression in treated MCAS cells by RT-QPCR
Type: cell-based, murine
Conditions: for RALDH3 expression (relative to 18S): MCAS cells treated in vitro with cytokine, vs no Tx
Protocol: FIGS. 16A-16C show 1L13 and RALDH expression. FIG. 16A: MCAS cells were treated in vitro with indicated agents and RALDH3 expression (relative to 18S) measured by RT-QPCR. P<0.05 between no Tx and IL4 or IL13. N=3, repeated >5 times. FIG. 16B: IL13 and IL13Rα1 staining in murine UPS. FIG. 16C: Single cell suspension from MCAS tumors were fractionated into CD45+(Leukocytes) and CD45-fraction using miltenyi magnetic columns. RT-QPCR based measurement (relative to 18S) of IL13 and IL13Rα1 transcripts were performed on fractionated cells. P<0.01 for IL13. N=3, experiment repeated twice.
FIG. 20A: MCAS cells were treated with indicated compounds and RALDH3 expression (relative to 18S) measured by RT-QPCR. P<0.01 for DMSO vs. IL13. P<0.05 for IL13 vs. IL13+BMS493. FIG. 20B: Schematic of RALDH3 regulation by RA.
Aldefluor positive and negative cells were purified from murine fibrosarcomas and were transplanted into syngeneic B6 mice. Tumors derived from both types of cells generated both aldefluor positive and negative cells. This indicated the existence of an environmental signal in the TME that induces RA production in tumor cells. Th2 cytokines such as IL4 and IL13 can promote the differentiation of monocytes into either immunostimulatory DCs or immunosuppressive TAMS. Therefore, it was reasoned that tumors might induce RA production in the presence of IL4 or IL13 to block DC and promote TAM differentiation. To test this, MCAS cell lines were treated with cytokines promoting macrophage and DC differentiation and measured the expression of RALDH enzymes. […] IL13 and its receptor IL13Rα1 were also detected in murine sarcomas by IHC (FIG. 16B).

## IL13: Th2 cytokine
MCAS cells in vitro
  potency of RALDH3 induction, IL13 compared with IL4: more potent
  RALDH3 expression (relative to 18S): induced the expression of RALDH3

B1: IL4: Th2 cytokine (protein, UniProt P05112 25-153, looked up)
Interleukin-4: HKCDITLQEIIKTLNSLTEQKTLCTELTVTDIFAASKNTTEKETFCRAATVLRQFYSHHEKDTRCLGATAQQFHRHKQLIRFLKRLDRNLWGLAGLNSCPVKEANQSTLENFLERLKTIMREKYSKCSS
  RALDH3 expression (relative to 18S): induced the expression of RALDH3
